Earlier results on two compounds are cited in patent US6414139B1, “Silicon amphiphilic compounds and the use thereof” (Imarx Therapeutics, Inc., priority 1996, dated 2002).

Molecules are shown by their SMILES.

The conditions of this series: gel state to liquid crystalline state; CRC Handbook of Lipid Bilayers p. 139.

Turning to `CCCCCCCCCCCCCCCCCCCCCCC(=O)OC[C@H](COP(=O)([O-])OCC[N+](C)(C)C)OC(=O)CCCCCCCCCCCCCCCCCCCCCC` [1,2-(23:0)], the “Main Phase Transition Temperature” value is 79.5 °C.

In the case of `CCCCCCCCCCCCCCCCCCCCCCCC(=O)OC[C@H](COP(=O)([O-])OCC[N+](C)(C)C)OC(=O)CCCCCCCCCCCCCCCCCCCCCCC` [1,2-(24:0)], the “Main Phase Transition Temperature” value is 80.1 °C.
